Assay [1] deals with nitric oxide production in RAW 264.7 cells. Kind of assay: Inhibitory effect on nitric oxide production in macrophages (Griess). The assay is classed as cell-based, mouse. The settings on record: LPS 1 μg/ml, RAW 264.7 (FIG. 2); for inhibition of nitric oxide production, rank among the three samples: compared with kaempferol. As for the experimental part:
RAW 264.7 cells, which is a mouse macrophage cell line, were dispensed in a 24-well plate at a concentration of 2×10^5 cells/well, and cultured in an incubator at 37° C. under 5% CO2 for 24 hours. Epigallocatechin gallate (EGCG), genistein, and kaempferol, which were samples dissolved in DMSO, were added thereto according to the concentrations. At this time, the final concentration of DMSO was adjusted to 0.1%. After 30 minutes, LPS (lipopolysaccharide), which is an inflammation inducing substance, was added at a concentration of 1 μg/ml. After that, these were cultured in an incubator at 37° C. under 5% CO2 for 24 hours.
To quantify nitric oxide, 50 ? of Griess reagent A (5% phosphoric acid, 1% sulfanilamide) was added to 50 ? of the cell culture medium, and then the mixture was allowed to stand in a dark place for 5 minutes. 50 ? of Griess reagent B (0.1% N-(1-naphthyl)ethylenediamine dihydrochloride) was further added thereto, and allowed to react in a dark place for 5 minutes. The absorbance of this reactant was measured at 540 nm, which was compared with the standard curve to calculate the final concentration of nitrogen monoxide. A standard curve was obtained by reacting in the same manner as above using sodium nitrite instead of the cell culture medium and then measuring the absorbance.
On the technique in general: The Griess reaction detects nitrite, a stable product of nitric oxide.

Assay [2] relates to IL-6 release in mouse macrophages RAW 264.7 cells. Description: Inhibition of IL-6 secretion in macrophages (ELISA). The assay is classed as cell-based. The settings on record: for IC50: Mus musculus, RAW264.7, LPS 100 ng/ml. As for the experimental part: (§1) Mouse macrophage RAW 264.7 was dispensed into a 24-well plate at a concentration of 2×10^5 cells/well, and cultured in an incubator at 37° C. under 5% CO2 using a DMEM medium for 24 hours, and then samples were added according to the concentrations. Thirty minutes after addition of the sample, LPS (100 ng/ml) was added and cultured at 37° C. for 20 hours to collect the culture medium. The secreted IL-6 and TNF-α were respectively quantified using Mouse IL-6 ELISA kit (Invitrogen, Thermo Scientific) and Mouse TNF-α ELISA kit (Invitrogen, Thermo Scientific).

The subject of assay [3] is TNF-α release in mouse macrophages RAW 264.7 cells. Description: Inhibition of TNF-α secretion in macrophages (ELISA). The assay is classed as cell-based. The settings on record: for IC50: Mus musculus, RAW264.7, LPS 100 ng/ml. As for the experimental part:
as §1

Assay [4] relates to 5α-reductase type II. Description: Inhibition of 5α-reductase type II expression in human dermal papilla cells (Western blot). The format is cell-based. The settings on record: HFDPC; testosterone 10 μM; 72 hours; samples 10, 20 μg/ml; order genistein, kaempferol, EGCG (FIG. 4). How it is done: The medium was then removed, and cells were collected by washing with PBS to extract proteins. To extract a protein, a lysis buffer for radio immunoprecipitation assay (RIPA) (sodium chloride 150 mM, sodium dodecyl sulfate (SDS) 0.1%, tris-hydrochloric acid (Tris-HCl: pH 7.5) 50 mM, ethylenediaminetetraacetic acid (EDTA) 2 mM, sodium deoxycholate 0.5%, Triton X-100 1%) was added and reacted, and then centrifuged at 10,000 rpm and 4° C. for 15 minutes to collect the supernatant. Then, the absorbance was measured at 595 nm to determine the protein concentration of each sample. These cell protein samples were mixed with sodium dodecyl sulfate (SDS) and a stain, and subjected to electrophoresis on a 12% SDS polyacrylamide gel.
Background: A western blot detects proteins with antibodies after separation by electrophoresis.

Assay [5] relates to histamine release in RBL-2H3 cells. Kind of assay: Inhibition of histamine release in RBL-2H3 cells (Compound 48/80). The format is cell-based, rat. How it is done:
White rat basophil leukemia cells (RBL-2H3) were dispensed into a 24-well plate at a concentration of 1×10^5 cells/well, and cultured for 24 hours. Samples were added according to the concentrations. After 1 hour, Compound 48/80 (1 mg/ml), which triggers an allergic reaction, was added and cultured for 20 minutes. The well plate was allowed to stand in a refrigerator at 4° C. for 10 minutes, and then the medium was collected and the amount of histamine released into the medium was quantified using the Histamine ELISA kit (Neogen).

Assay [6] can be described thus: DPPH radical scavenging ability. The assay is classed as biochemical. The following applies: for DPPH radical scavenging ability (IC50): DPPH 300 μM, 30 minutes. As for the experimental part:
100 ? l sample and the same amount of DPPH (2,2-diphenyl-1-picrylhydrazyl, 300 μM) solution were mixed in a 96-well plate, and reacted in a dark place for 30 minutes, and the absorbance was measured at 520 nm. The same amount of ethanol was reacted instead of the sample, and the blank value was calculated according to the following Equation.
DPPH radical scavenging ability (%)=[1−(A−B)/C]×100
wherein, A is the absorbance of the sample-added group (DPPH+sample); B is the absorbance of the ethanol-added group (sample+ethanol) instead of DPPH; and C is the absorbance of the ethanol-added group (DPPH+ethanol) instead of the sample.

Assay [7] can be described thus: ABTS radical scavenging ability. The assay is classed as biochemical. The settings on record: for ABTS radical scavenging ability (IC50): 10 minutes, absorbance 734 nm. As for the experimental part: The ABTS radical scavenging ability was calculated according to the following Equation.
ABTS radical scavenging ability (%)=[1−(AB)/C]×100
wherein, A is the absorbance of the sample-added group (ABTS+sample); B is the absorbance of the distilled water-added group (sample+distilled water) instead of ABTS; and C is the absorbance of the ethanol-added group (ABTS+ethanol) instead of the sample.

The test system of assay [8] is cyclooxygenase-2 (COX-2). Kind of assay: COX-2 expression inhibition in LPS-stimulated RAW 264.7 (Western blot). The assay is classed as cell-based, mouse. The following applies: 25 μg/ml, LPS 100 ng/ml, Western blot (FIG. 1). As for the experimental part:
(§2) Mouse macrophage RAW 264.7 was dispensed into a 6-well plate at a concentration of 6×10^5 cells/well (number of cells per well), and cultured in an incubator at 37° C. under 5% CO2 using a DMEM Dulbecco's Modified Eagle's Medium (Sigma-Aldrich, Cat. No. D7777) for 24 hours, and then samples were added according to the concentrations.
(§3) Thirty minutes after the addition of the sample, lipopolysaccharide (LPS, 100 ng/ml) was added, and further cultured for 20 hours. After that, the medium was removed, washed with phosphate buffered saline (PBS) to collect the cells. In order to extract the protein, a lysis buffer for radioimmunoprecipitation assay (RIPA; sodium chloride 150 mM, sodium dodecyl sulfate (SDS) 0.1%, tris-hydrochloric acid (Tris-HCl: pH 7.5) 50 mM, ethylenediaminetetraacetic acid (EDTA) 2 mM, sodium deoxycholate 0.5%, Triton X-100 1%) was added and reacted, and then centrifuged at 10,000 rpm and 4° C. for 15 minutes to obtain the supernatant. The absorbance of the supernatant was then measured at 595 nm to determine the protein concentration of each sample. Then, the cell protein sample was mixed with sodium dodecyl sulfate (SDS) and a stain, and subjected to electrophoresis on a 12% SDS polyacrylamide gel. […]

The subject of assay [9] is IL-6 secretion in human follicle dermal papilla cells (HFDPC). The following applies: TST or DHT 10 μM, 72 hours (FIG. 3).
Experimental: Human follicle dermal papilla cells (HFDPC) were dispensed into a 12-well plate at a concentration of 1×10^5 cells/well, and cultured for 24 hours. After that, the medium was replaced with Dulbecco's modified eagle's medium (DMEM) containing no fetal bovine serum (FBS), and subjected to starvation for 24 hours, and then samples were added according to the concentrations (2, 5, 10, 20 μg/ml). […] Then, the medium was collected, and IL-6 secreted in the medium was quantified using a Human IL-6 ELISA kit (Invitrogen, Thermo Scientific).
The subject of assay [10] is inducible nitric oxide synthase (iNOS). Kind of assay: iNOS expression inhibition in LPS-stimulated RAW 264.7 (Western blot). The assay is classed as cell-based, mouse. The settings on record: 25 μg/ml, LPS 100 ng/ml, Western blot (FIG. 1). As for the experimental part: as §2, §3
Assay [11] deals with 5-lipoxygenase (5-LO). Kind of assay: Inhibition of 5-lipoxygenase (5-LO) expression in RBL-2H3 (Western blot). The settings on record: Compound 48/80 1 mg/ml (FIG. 5). The format is cell-based, rat.
Experimental: White rat basophilic leukemia cells (RBL-2H3) were dispensed into a 6-well plate at a concentration of 3×10^5 cells/well, and cultured in an incubator at 37° C. under 5% CO2 using a DMEM medium for 24 hours. Samples were added according to the concentrations, cultured for 24 hours, and then Compound 48/80 (1 mg/ml), which is substance that induces an allergic reaction, was added, and cultured for 1 hour. After that, the medium was removed, and washed with PBS to collect the cells, and then proteins were extracted. To extract protein, lysis buffer for radioimmunoprecipitation assay (RIPA; sodium chloride 150 mM, sodium dodecyl sulfate (SDS) 0.1%, tris-hydrochloric acid (Tris-HCl: pH 7.5) 50 mM, ethylenediaminetetraacetic acid (EDTA) 2 mM, sodium deoxycholate 0.5%, Triton X-100 1%) was added and reacted, and then centrifuged at 10,000 rpm and 4° C. for 15 minutes to take the supernatant. The absorbance thereof was then measured at 595 nm to determine the protein concentration of each sample. Then, the cell protein sample was mixed with sodium dodecyl sulfate (SDS) and a stain, and subjected to electrophoresis on a 12% SDS polyacrylamide gel. […]
The mark [12] stands for this setting: Rattus norvegicus, Compound 48/80 1 mg/ml.
[13] abbreviates: highest inhibitory effect among EGCG, genistein, kaempferol.

≈ marks a conversion by molar mass, not a printed value. Where two headings read alike, the source gives them in different places.

Turning to `O=C(O[C@@H]1Cc2c(O)cc(O)cc2O[C@@H]1c1cc(O)c(O)c(O)c1)c1cc(O)c(O)c(O)c1` [Epigallocatechin gallate (EGCG), Epigallocatechin gallate], in assay [1], the “inhibition of nitric oxide production, rank among the three samples” value was “next most inhibitory”. The “IL-6 (IC50)” value in assay [2] (LPS 100 ng/ml, 20 hours) turned out to be 98.99 ± 10.87 µg/mL. Moreover, the “TNF-α (IC50)” value in [3] (LPS 100 ng/ml, 20 hours) amounted to 83.68 ± 3.45 µg/mL. The “inhibition of 5α-reductase type II expression” value in assay [4] is listed as “effectively inhibited”. In addition, in [5] (Compound 48/80 1 mg/ml), the “histamine release inhibition (IC50)” value turned out to be 50.0 ± 9.80 µg/mL. In addition, in assay [6], the “DPPH radical scavenging ability (IC50)” value turned out to be 3.40 µg/mL. Moreover, in assay [7], the “ABTS radical scavenging ability (IC50)” value came out at 1.65 µg/mL.

As to `O=c1c(-c2ccc(O)cc2)coc2cc(O)cc(O)c12` [Genistein], the “inhibition of COX-2 expression” value in assay [8] is listed as “mostly inhibited the expression of COX-2”. Moreover, in assay [1], the “inhibition of nitric oxide production, rank among the three samples” value is listed as “slightly decreased the inhibitory power”. The IC50 – broadly, the concentration that inhibits the measured activity by half – is 8.92 ± 0.08 µg/mL (≈ 33 µM) in assay [2] (20 hours), 14.99 ± 0.11 µg/mL (≈ 55.5 µM) in assay [3] (20 hours) and above 1000 µg/mL in assay [5] (setting [12]). In addition, the “inhibition of 5α-reductase type II expression” value in [4] is listed as “effectively inhibited”. For the same compound, the inhibition (commonly the change of the read-out against control, counted positive when it falls) at 1000 µg/mL in [5] (Rattus norvegicus, at 1000 μg/ml) stood at 46%. The “DPPH radical scavenging ability” value in assay [6] (at 100 ppm) was 5.18% at 100 ppm. Moreover, the “ABTS radical scavenging ability” value in [7] (at 100 ppm) came to 5.29% at 100 ppm. In addition, the “inhibition of the release of IL-6 by DHT or TST” value in assay [9] (5 μg/ml) is recorded as “almost completely inhibited”.

As to `O=c1c(O)c(-c2ccc(O)cc2)oc2cc(O)cc(O)c12` [Kaempferol], the “inhibition of iNOS expression” value in assay [10] is “inhibited the expression of iNOS to the control (CON) levels”. The “inhibition of nitric oxide production” value in assay [1] (20 μg/ml) is on record as “inhibited almost to the control level”. Besides, the values for the 50% inhibitory concentration (IC50) in [2] (20 hours), in assay [3] (20 hours) and in assay [5] (setting [12]) were 5.93 ± 0.07 µg/mL (≈ 20.7 µM), 13.6 ± 0.72 µg/mL (≈ 47.4 µM) and 0.2 ± 0.02 µg/mL (≈ 0.699 µM), respectively. The “inhibition of IL-6 in macrophages (in words)” value in assay [2] (setting [13]) is reported as “effectively inhibited”. Also, the “inhibition of TNF-α in macrophages (in words)” value in assay [3] (setting [13]) is reported as “effectively inhibited”. Further, the “inhibition of 5α-reductase type II expression” value in assay [4] is “effectively inhibited”. The “inhibition of 5-LO expression” value in assay [11] is given as “effectively inhibits 5-LO expression at the lowest concentration”. The inhibition at 0.2 µg/mL in assay [5] (Rattus norvegicus, at 0.2 μg/ml) was above 50%. In [6], the “DPPH radical scavenging ability (IC50)” value worked out at 11.66 ± 0.30 µg/mL. In addition, the “ABTS radical scavenging ability (IC50)” value in assay [7] amounted to 6.18 ± 0.08 µg/mL. The “inhibition of the release of IL-6 by DHT or TST” value in assay [9] (10 μg/ml) was “almost completely inhibited”.

Values taken from patent US20240165072A1, “PHARMACEUTICAL COMPOSITION FOR ALLEVIATING OR TREATING HAIR LOSS THROUGH INFLAMMATION AMELIORATION OF HUMAN DERMAL PAPILLA CELLS AND PERIPHERAL CELLS AND INHIBITION OF 5A-REDUCTASE EXPRESSION” (BEN'S LAB. CO. LTD., priority 2021, published 2024).
